From US7687514B2, “Benzimidazole derivatives” (Banyu Pharmaceuticals Co., Ltd., priority 2002, dated 2010)
Like-named read-outs stand apart in the source and are kept apart here.

Assays:
human NPY Y5 receptor = target: T1, human NPY Y5 receptor (Homo sapiens, UniProt Q15761); experiment: NPY binding inhibition test ([125I]peptide YY binding to membranes of NPY Y5 receptor expressing cells); conditions: 25° C., 2 hours, membrane of NPY Y5 receptor expressing cells, read-out: IC50 against specific peptide YY binding
T1 construct: expressed in transfected cells; host or cells: COS-7, CHO and LM(tk-)
T1 sequence (Q15761 1-445): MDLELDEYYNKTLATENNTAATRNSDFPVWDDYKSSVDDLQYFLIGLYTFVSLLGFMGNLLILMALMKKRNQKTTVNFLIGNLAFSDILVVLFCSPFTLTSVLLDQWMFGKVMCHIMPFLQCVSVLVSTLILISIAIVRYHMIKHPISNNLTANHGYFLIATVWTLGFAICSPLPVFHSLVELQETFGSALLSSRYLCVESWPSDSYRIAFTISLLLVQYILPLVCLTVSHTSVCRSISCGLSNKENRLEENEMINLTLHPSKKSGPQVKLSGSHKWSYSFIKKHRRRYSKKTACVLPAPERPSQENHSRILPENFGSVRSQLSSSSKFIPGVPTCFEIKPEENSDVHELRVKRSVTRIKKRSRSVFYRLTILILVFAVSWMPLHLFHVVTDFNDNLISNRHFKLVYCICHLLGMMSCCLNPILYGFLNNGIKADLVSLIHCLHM
Text: Pharmacological Test 1 (NPY Binding Inhibition Test)
cDNA sequence encoding human NPY Y5 receptor (c.f. International patent publication number WO96/16542) was cloned into expression vectors pcDNA3, pRc/RSV (made by Invitrogen Inc.) and pCI-neo (made by Promega Inc.). The expression vectors thus obtained were transfected to host cells COS-7, CHO and LM(tk-) (American Type Culture Collection) by cationic lipid method (Proceedings of the National Academy of Sciences of the United States of America, 84: 7413(1987)) to give NPY Y5 receptor expression cells.
A membrane sample prepared from the cells which expressed NPY Y5 receptor was incubated together with a test compound and [^125I]peptide YY (made by NEN) (20,000 cpm) in an assay buffer (25 mM Tris buffer, pH 7.4, containing 10 mM magnesium chloride, 1 mM phenylmethylsulfonyl fluoride, 0.1% bacitracin and 0.5% bovine serum albumin) at 25° C. for 2 hours, then filtered through a glass filter GF/C and washed with 5 mM Tris buffer (pH 7.4) containing 0.3% BSA. The radioactivity of the cake on the glass filter was measured. Non-specific binding was measured in the presence of 1 μM peptide YY, and a 50% Inhibitory Concentration (IC50) of the test compound against specific peptide YY binding was determined (Endocrinology, 131: 2090(1992)).

[1] = Pharmacokinetics test (plasma concentration after oral or intravenous administration); assay type: in vivo; conditions: rat, male SD rats
Description: Pharmacological Test 3 (Pharmacokinetics Test)
A test compound was orally or intravenously administered to male SD rats (7-10 weeks old, 200-400 g) which abstained from food overnight. About 100 μL of blood was collected from the tail vein at predetermined time, using a heparinized capillary. The blood was centrifuged (4° C., 6,000 r.p.m., 10 minutes) to collect the plasma, to which was added 3-fold amount of ethanol containing an internal standard. The mixture was stirred, allowed to stand at −20° C. for 20 minutes, and then centrifuged (4° C., 10,000 r.p.m., 10 minutes). The supernatant was analyzed by LC/MS/MS, and the concentration of the test compound in the plasma was measured using a relative calibration curve.

[2] = Brain/cerebrospinal fluid transport test; assay type: in vivo, male SD rats; conditions: rat, 2 hours after oral administration (10 mg/kg); for concentration at 2 h: male, SD
Description: Pharmacological Test 4 (Brain/Cerebrospinal Fluid Transport Test)
A test compound was orally or intravenously administered to male SD rats (7-10 weeks old, 200-400 g), and whole blood was collected from the abdominal aorta of said rats anesthetized with ether at predetermined time, using a heparin-treated syringe. Then, the head skin was cut open, and a dental 30 G needle was inserted between the cervical vertebrae, and it was further inserted into the cavum subarachnoideale. After 50 to 100 μL cerebrospinal fluid had been collected by a 1 ml-syringe through a tube connected to said dental 30 G needle, the brain was extracted. The blood sample was centrifuged (4° C., 6,000 r.p.m., 10 minutes) to collect the plasma, to which was added 3-fold amount of ethanol containing an internal standard, and the mixture was stirred. The brain sample was homogenized after addition of 2 ml water, an aliquot of the homogenate was taken and 3-fold amount of ethanol containing an internal standard was added thereto and stirred. The cerebrospinal fluid was stirred after adding 3-fold amount of ethanol containing an internal standard. The samples thus obtained were allowed to stand at −20° C. for 20 minutes, and then centrifuged (4° C., 12,000 g, 10 minutes). The supernatant was analyzed by LC/MS/MS, and the concentration of the test compound in the plasma, brain, and cerebrospinal fluid were measured by the method using a relative calibration curve.

Compound | IC50 (human NPY Y5 receptor) [nM] | further results
O=C1OC2(CCC(c3nc4cnc(-c5cc(F)ccc5F)nc4[nH]3)CC2)c2cnccc21 (stereo not drawn) [Example 17, Trans-2-(2,5-difluorophenyl)-8-[3-oxospiro[6-azaisobenzofuran-1(3H),1′-cyclohexan]-4′yl]purine] | 2.7 | –
O=C1OC2(CCC(c3nc4cnc(-c5ccccc5)nc4[nH]3)CC2)c2ccccc21 (stereo not drawn) [Example 6, trans-8-[3′-oxospiro[cyclohexane-1,1′(3′H)-isobenzofuran]-4-yl]-2-phenylpurine] | 2.2 | bioavailability ([1]; oral or intravenous administration): 78%; half-life ([1]; read-out: half-life in the blood (converted)): 3 h; concentration at 2 h ([2]; cerebrospinal fluid, read-out: concentration in the cerebrospinal fluid): 33 nM; concentration at 2 h ([2]; plasma, read-out: concentration in the plasma): 2770 nM; concentration in the brain [2]: 1.10 nmol/g
O=C1OC2(CCC(c3nc4cnc(-c5ccccc5F)nc4[nH]3)CC2)c2ccccc21 (stereo not drawn) [Example 8, Trans-2-(2-fluorophenyl)-8-[3′-oxospiro[cyclohexane-1,1′(3′H)-isobenzofuran]-4-yl]purine] | 1.8 | –
O=C1OC2(CCC(c3nc4ccc(-c5ccccc5F)nc4[nH]3)CC2)c2cnccc21 (stereo not drawn) [Example 27, Trans-5-(2-fluorophenyl)-2-[3-oxospiro[6-azaisobenzofuran-1(3H),1′-cyclohexan]-4′-yl]imidazo[4,5-b]pyridine] | 0.72 | –
O=C1OC2(CCC(c3nc4cnc(-c5ccccc5F)nc4[nH]3)CC2)c2cnc(F)cc21 (stereo not drawn) [Example 20, Trans-8-[5-fluoro-3-oxospiro[6-azaisobenzofuran-1(3H),1′-cyclohexan]-4′-yl]-2-(2-fluorophenyl)purine] | 2.3 | –
O=C1OC2(CCC(c3nc4cnc(-c5ccc(F)cc5)nc4[nH]3)CC2)c2cnccc21 (stereo not drawn) [Example 13, Trans-2-(4-fluorophenyl)-8-[3-oxospiro[6-azaisobenzofuran-1(3H),1′-cyclohexan]-4′-yl]purine] | 2.9 | –
